Patent publication US20250136570A1 (Tango Therapeutics, Inc., priority 2021, published 2025)

Columns and labels:
HDAC3/NCor2 = HDAC3/NCor2 (Homo sapiens (Human), UniProt O15379); assay: HDAC3 inhibition, Fluor de Lys fluorescent enzyme assay; format: biochemical; conditions: 3 hours pre-incubation at room temp; 1.2 nM enzyme; 16 μM Fluor de Lys substrate; duplicate
In short: (§1)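 Enzyme (HDAC1 6 nM, HDAC3/NCor2 1.2 nM final) pre-incubated with compound 3 h at ~22 °C in Tris pH 8 buffer with 0.01% BSA. Reaction run 1 h with 16 μM Fluor de Lys substrate and stopped with TSA-containing developer. Fluorescence read at Ex 360/Em 460; IC50 from an occupancy equation with Hill coefficient, in duplicate.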

Recombinant HDAC1 = Recombinant HDAC1 (Homo sapiens (Human), UniProt Q13547); assay: HDAC1 inhibition, Fluor de Lys fluorescent enzyme assay; format: biochemical; conditions: 3 hours pre-incubation at room temp; 6 nM enzyme; 16 μM Fluor de Lys substrate; duplicate
In short: as §1

Chain of Recombinant HDAC1 (Q13547 whole entry): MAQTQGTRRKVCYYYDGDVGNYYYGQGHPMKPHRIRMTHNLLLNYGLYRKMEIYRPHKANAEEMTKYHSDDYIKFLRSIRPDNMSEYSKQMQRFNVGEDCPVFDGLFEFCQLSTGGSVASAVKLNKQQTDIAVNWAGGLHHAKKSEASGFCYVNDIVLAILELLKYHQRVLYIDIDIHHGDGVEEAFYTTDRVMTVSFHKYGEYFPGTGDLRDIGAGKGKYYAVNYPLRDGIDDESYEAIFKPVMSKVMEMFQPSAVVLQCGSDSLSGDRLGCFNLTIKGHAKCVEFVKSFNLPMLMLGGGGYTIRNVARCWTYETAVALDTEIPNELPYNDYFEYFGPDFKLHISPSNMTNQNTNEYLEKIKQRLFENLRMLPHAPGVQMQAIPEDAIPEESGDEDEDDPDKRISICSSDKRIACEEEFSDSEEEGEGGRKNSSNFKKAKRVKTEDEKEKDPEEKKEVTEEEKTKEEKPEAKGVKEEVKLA
Chain of HDAC3/NCor2 (O15379 whole entry): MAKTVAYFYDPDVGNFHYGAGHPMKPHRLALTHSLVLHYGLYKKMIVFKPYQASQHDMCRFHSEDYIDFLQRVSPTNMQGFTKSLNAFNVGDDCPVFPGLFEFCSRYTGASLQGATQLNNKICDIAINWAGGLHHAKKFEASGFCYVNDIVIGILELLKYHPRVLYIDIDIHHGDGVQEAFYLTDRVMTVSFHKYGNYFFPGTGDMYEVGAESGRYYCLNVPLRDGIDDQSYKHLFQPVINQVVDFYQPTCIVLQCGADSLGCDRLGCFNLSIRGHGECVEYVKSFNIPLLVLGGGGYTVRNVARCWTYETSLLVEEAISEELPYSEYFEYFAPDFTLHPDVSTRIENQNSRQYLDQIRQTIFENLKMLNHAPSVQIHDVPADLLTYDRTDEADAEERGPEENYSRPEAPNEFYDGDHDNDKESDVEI
Chain of HDAC3/NCor2 (Q9Y618 395-489 partner): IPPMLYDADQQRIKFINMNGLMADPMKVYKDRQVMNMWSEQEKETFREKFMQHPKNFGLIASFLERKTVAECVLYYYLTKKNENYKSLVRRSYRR

| SMILES | IC50 (HDAC3/NCor2) [nM] | IC50 (Recombinant HDAC1) [nM] |
| --- | --- | --- |
| CS(=N)(=O)c1ccc(C(=O)Nc2cc(-c3cccnn3)ccc2N)cc1 (stereo not drawn) [Compound 157, N-(2-amino-5-pyridazin-3-yl-phenyl)-4-(methylsulfonimidoyl)benzamide] | > 2000 | < 100 |
| N=S(=O)(c1ccc(C(=O)Nc2cc(-c3ccc(F)cc3)ccc2N)cc1)c1ccccn1 (stereo not drawn) [Compound 166, N-[2-amino-5-(4-fluorophenyl)phenyl]-4-(2-pyridylsulfonimidoyl)benzamide] | 500 to 2000 | < 100 |
| N=[S@](=O)(c1ccc(C(=O)Nc2cc(-c3ccc(F)cc3)ccc2N)cc1)c1cncnc1 (single isomer, unassigned) [Compound 183] | 500 to 2000 | < 100 |
| C[S@](=N)(=O)c1ccc(C(=O)Nc2cc(-c3ccc(F)cc3)ccc2N)cc1 [Compound 134, (S)—N-[2-amino-5-(4-fluorophenyl)phenyl]-4-(methylsulfonimidoyl)benzamide] | 500 to 2000 | < 100 |
| CS(=N)(=O)c1ccc(C(=O)Nc2cc(-c3cccs3)ccc2O)cc1 (stereo not drawn) [Compound 123, N-[2-hydroxy-5-(2-thienyl)phenyl]-4-(methylsulfonimidoyl)benzamide] | 500 to 2000 | < 100 |
| CS(=N)(=O)c1coc2cc(C(=O)Nc3cc(-c4ccc(F)cc4)ccc3N)ccc12 (stereo not drawn) [Compound 258, N-[2-amino-5-(4-fluorophenyl)phenyl]-3-(methylsulfonimidoyl)benzofuran-6-carboxamide] | 500 to 2000 | < 100 |
| CS(=N)(=O)c1cc2ccc(C(=O)Nc3cc(-c4ccc(F)cc4)ccc3N)cc2o1 (stereo not drawn) [Compound 187, N-[2-amino-5-(4-fluorophenyl)phenyl]-2-(methylsulfonimidoyl)benzofuran-6-carboxamide] | 500 to 2000 | < 100 |
| C[S@@](=N)(=O)c1ccc(C(=O)Nc2cc(-c3ccc(F)cc3)ccc2N)cc1 [Compound 132, (R)—N-[2-amino-5-(4-fluorophenyl)phenyl]-4-(methylsulfonimidoyl)benzamide] | 500 to 2000 | < 100 |
| Cc1ccc(S(=N)(=O)c2ccc(C(=O)Nc3cc(-c4ccc(F)cc4)ccc3N)cc2)cn1 (stereo not drawn) [Compound 233, N-[2-amino-5-(4-fluorophenyl)phenyl]-4-[(6-methyl-3-pyridyl)sulfonimidoyl]benzamide] | 500 to 2000 | < 100 |
| CS(=N)(=O)c1ccc(C(=O)Nc2cc(-c3cccs3)ccc2N)cn1 (stereo not drawn) [Compound 110, N-[2-amino-5-(2-thienyl)phenyl]-6-(methylsulfonimidoyl)pyridine-3-carboxamide] | 500 to 2000 | < 100 |
| N=S(=O)(c1ccc(C(=O)Nc2cc(-c3ccc(F)cc3)ccc2N)cc1)C(F)(F)F (stereo not drawn) [Compound 177, N-[2-amino-5-(4-fluorophenyl)phenyl]-4-(trifluoromethylsulfonimidoyl)benzamide] | 500 to 2000 | < 100 |
| N=S(=O)(c1ccc(C(=O)Nc2cc(-c3ccc(F)cc3)ccc2N)cc1)c1cncc(CO)c1 (stereo not drawn) [Compound 250, N-(4-amino-4′-fluoro-[1,1′-biphenyl]-3-yl)-4-(5-(hydroxymethyl)pyridine-3-sulfonimidoyl)benzamide] | 500 to 2000 | < 100 |
| CC(C)(C)C(=O)N=S(C)(=O)c1ccc(C(=O)Nc2cc(-c3cccs3)ccc2N)cc1 (stereo not drawn) [Compound 125, N-[2-amino-5-(2-thienyl)phenyl]-4-[N-(2,2-dimethylpropanoyl)-S-methyl-sulfonimidoyl]benzamide] | 500 to 2000 | < 100 |
| CCN=S(C)(=O)c1ccc(C(=O)Nc2cc(-c3ccc(F)cc3)ccc2N)cc1 (stereo not drawn) [Compound 165, N-[2-amino-5-(4-fluorophenyl)phenyl]-4-(N-ethyl-S-methyl-sulfonimidoyl)benzamide] | 500 to 2000 | < 100 |
| Cc1csc(-c2ccc(N)c(NC(=O)c3ccc(S(C)(=N)=O)cc3)c2)c1 (stereo not drawn) [Compound 135, N-[2-amino-5-(4-methyl-2-thienyl)phenyl]-4-(methylsulfonimidoyl)benzamide] | > 2000 | < 100 |
| COc1ccc(S(=N)(=O)c2ccc(C(=O)Nc3cc(-c4ccc(F)cc4)ccc3N)cc2)cn1 (stereo not drawn) [Compound 222, N-[2-amino-5-(4-fluorophenyl)phenyl]-4-[(6-methoxy-3-pyridyl)sulfonimidoyl]benzamide] | 500 to 2000 | < 100 |
| Cc1cnc(S(=N)(=O)c2ccc(C(=O)Nc3cc(-c4ccc(F)cc4)ccc3N)cc2)[nH]1 (stereo not drawn) [Compound 228, N-[2-amino-5-(4-fluorophenyl)phenyl]-4-[(5-methyl-1H-imidazol-2-yl)sulfonimidoyl]benzamide] | 100 to 500 | < 100 |

| SMILES | IC50 (HDAC3/NCor2) [nM] | IC50 (Recombinant HDAC1) [nM] |
| --- | --- | --- |
| Cc1ncc(-c2ccc(N)c(NC(=O)c3ccc(S(C)(=N)=O)cc3)c2)s1 (stereo not drawn) [Compound 156, N-[2-amino-5-(2-methylthiazol-5-yl)phenyl]-4-(methylsulfonimidoyl)benzamide] | > 2000 | 100 to 500 |
| N#Cc1ccc(S(=N)(=O)c2ccc(C(=O)Nc3cc(-c4ccc(F)cc4)ccc3N)cc2)cn1 (stereo not drawn) [Compound 239, N-[2-amino-5-(4-fluorophenyl)phenyl]-4-[(6-cyano-3-pyridyl)sulfonimidoyl]benzamide] | 500 to 2000 | < 100 |
| CS(=N)(=O)c1ccc2sc(C(=O)Nc3cc(-c4ccc(F)cc4)ccc3N)cc2n1 (stereo not drawn) [Compound 254, N-[2-amino-5-(4-fluorophenyl)phenyl]-5-(methylsulfonimidoyl)thieno[3,2-b]pyridine-2-carboxamide] | 100 to 500 | < 100 |
| N=[S@](=O)(c1ccc(C(=O)Nc2cc(-c3cccs3)ccc2N)cc1)C1CC1 (single isomer, unassigned) [Compound 114] | 500 to 2000 | < 100 |
| N=S(=O)(c1ccc(C(=O)Nc2cc(-c3ccc(F)cc3)ccc2N)cn1)c1cnc[nH]1 (stereo not drawn) [Compound 219, N-[2-amino-5-(4-fluorophenyl)phenyl]-6-(1H-imidazol-5-ylsulfonimidoyl)pyridine-3-carboxamide] | 500 to 2000 | < 100 |
| CS(=N)(=O)c1ccc(C(=O)Nc2cc(-c3ccc(F)c(F)c3)ccc2N)cc1 (stereo not drawn) [Compound 147, N-[2-amino-5-(3,4-difluorophenyl)phenyl]-4-(methylsulfonimidoyl)benzamide] | > 2000 | 100 to 500 |
| Nc1ccc(-c2ccc(F)cc2)cc1NC(=O)c1ccc([S@@]2(=O)=N[C@@H](c3ccccc3)CC2)cc1 (racemic) [Compound 229, rac-N-(4-amino-4′-fluoro-[1,1′-biphenyl]-3-yl)-4-((1R,3R)-1-oxido-3-phenyl-4,5-dihydro-3H-1λ^6-isothiazol-1-yl)benzamide] | > 2000 | < 100 |
| CS(=N)(=O)Cc1ccc(C(=O)Nc2cc(-c3ccc(F)cc3)ccc2N)cc1 (stereo not drawn) [Compound 162, N-[2-amino-5-(4-fluorophenyl)phenyl]-4-[(methylsulfonimidoyl)methyl]benzamide] | 500 to 2000 | < 100 |
| CS(=N)(=O)C1(c2ccc(C(=O)Nc3cc(-c4ccc(F)cc4)ccc3N)cc2)CC1 (stereo not drawn) [Compound 251, N-[2-amino-5-(4-fluorophenyl)phenyl]-4-[1-(methylsulfonimidoyl)cyclopropyl]benzamide] | 500 to 2000 | < 100 |
| Cc1ccc(-c2ccc(N)c(NC(=O)c3ccc(S(C)(=N)=O)cc3)c2)s1 (stereo not drawn) [Compound 139, N-[2-amino-5-(5-methyl-2-thienyl)phenyl]-4-(methylsulfonimidoyl)benzamide] | > 2000 | < 100 |
| CCN=S(C)(=O)c1ccc2sc(C(=O)Nc3cc(-c4ccc(F)cc4)ccc3N)cc2c1 (stereo not drawn) [Compound 207, N-[2-amino-5-(4-fluorophenyl)phenyl]-5-(N-ethyl-S-methyl-sulfonimidoyl)benzothiophene-2-carboxamide] | 500 to 2000 | < 100 |
| COCCS(=N)(=O)c1ccc(C(=O)Nc2cc(-c3cccs3)ccc2N)nc1 (stereo not drawn) [Compound 121, N-[2-amino-5-(2-thienyl)phenyl]-5-(2-methoxyethylsulfonimidoyl)pyridine-2-carboxamide] | 500 to 2000 | < 100 |
| CS(=O)(=NC1CC1)c1ccc(C(=O)Nc2cc(-c3ccc(F)cc3)ccc2N)cc1 (stereo not drawn) [Compound 163, N-[2-amino-5-(4-fluorophenyl)phenyl]-4-(N-cyclopropyl-S-methyl-sulfonimidoyl)benzamide] | 100 to 500 | < 100 |
| N=S(=O)(c1ccc(C(=O)Nc2cc(-c3ccc(F)cc3F)ccc2N)cc1)C1CC1 (stereo not drawn) [Compound 118, N-[2-amino-5-(2,4-difluorophenyl)phenyl]-4-(cyclopropylsulfonimidoyl)benzamide] | 500 to 2000 | < 100 |
| CS(=N)(=O)c1ccc(C(=O)Nc2cc(-c3ccc(Cl)cc3)ccc2N)cc1 (stereo not drawn) [Compound 182, N-[2-amino-5-(4-chlorophenyl)phenyl]-4-(methylsulfonimidoyl)benzamide] | > 2000 | < 100 |
| CS(=N)(=O)c1ccc2oc(C(=O)Nc3cc(-c4ccc(F)cc4)ccc3N)cc2n1 (stereo not drawn) [Compound 189, N-[2-amino-5-(4-fluorophenyl)phenyl]-5-(methylsulfonimidoyl)furo[3,2-b]pyridine-2-carboxamide] | 500 to 2000 | < 100 |
